{"source": "patent US12053506B2", "about": "“Romo1-derived antimicrobial peptides and variants thereof” (priority 2019, dated 2024)", "key": {"[1]": {"test_system": "Staphylococcus aureus, Pseudomonas aeruginosa, Klebsiella pneumoniae and Acinetobacter baumannii", "experiment": "Survival rate of mice injected with gram-positive or gram-negative bacteria", "assay_type": "in vivo, mice (C57BL/6)", "conditions": "FIG. 3, bacteria only 0 to 20%", "excerpt": "Following Example 2-2, in order to evaluate the antibacterial activity of KU-5878 peptide in vivo, Staphylococcus aureus as gram-positive bacteria, Pseudomonas aeruginosa, Klebsiella pneumoniae and Acinetobacter baumannii as gram-negative bacteria, and multidrug-resistant Pseudomonas aeruginosa, methicillin-resistant Staphylococcus aureus, multidrug-resistant Klebsiella pneumoniae and multidrug-resistant Acinetobacter baumannii as multidrug-resistant bacteria were selected, and the following experiment was performed.\nThe experimental method is as described in Example 2-2 above. For a positive group, each type of the bacteria was injected into mice, and after 24 hours, 30 mg/kg of imipenem, a carbapenem-based antibiotic, was injected intraperitoneally (IP), and then the same amount of imipenem was administered intraperitoneally a total of 4 times at 12-hour intervals. The survival rates of each control group and the experimental group were measured at 24-hour intervals."}, "[2]": {"test_system": "Klebsiella pneumoniae (ATCC 13883)", "experiment": "Minimum bactericidal concentration (MBC) assay", "assay_type": "cell-based", "description": "(§1) The minimum bactericidal concentration assay was the same as the method used in Example 1.\n(§2) Specifically, each type of bacteria was cultured in 3% (w/v) TSB (Tryptic Soy Broth) liquid medium at 37° C. and 200 rpm for 4 hours, and then further cultured under the same conditions for 3 hours to a concentration of 5×10^6 CFU/ml. Strain solutions were prepared by diluting each of the […] of 2×10^5 CFU/ml.\n(§3) Then, the KU-5878 peptide at varying concentrations (0 μg/ml to 300 μg/ml) was dispensed into each well of a 96-well microplate, and 100 μl (1×10^5 CFU/ml) of each of the prepared strain solutions was added thereto, mixed therewith, and allowed to react with the peptide in an incubator at 37° C. for 1 hour.\n(§4) In addition, 10 μl of each reaction solution of the peptide and the strain was plated on the TS agar plate at a constant size, and incubated in an incubator at 37° C. for 18 hours, and then colony formation on the plate was checked. The minimum bactericidal concentration was defined as the minimum concentration of the peptide at which no colony was formed, and the experimental results are shown in Table 2 below."}, "[3]": {"test_system": "Enterobacter aerogenes (ATCC 13048)", "experiment": "Minimum bactericidal concentration (MBC) assay", "assay_type": "cell-based", "description": "as §1, §2, §3, §4"}, "[4]": {"test_system": "Enterococcus faecium (ATCC 19434)", "experiment": "Minimum bactericidal concentration (MBC) assay", "assay_type": "cell-based", "description": "as §1, §2, §3, §4"}, "[5]": {"test_system": "Enterococcus faecalis (ATCC 19433)", "experiment": "Minimum bactericidal concentration (MBC) assay", "assay_type": "cell-based", "description": "as §1, §2, §3, §4"}, "mouse red blood cells": {"test_system": "mouse red blood cells", "assay_type": "cell-based", "description": "Red blood cells were diluted with PBS, centrifuged 3 times at 900 g for 10 minutes, and washed. 100 μl of the diluted red blood cell solution (10% v/v PBS) was dispensed into each well of a 96-well microplate, and KU-5878, KU-5878-K4, KU-5878-K4-D, melittin, magainin 2 or daptomycin was added to each well which was then filled with PBS to 200 μl, followed by reaction by incubation at 37° C. for 1 hour. Then, the supernatant of the reaction solution was separated, and the absorbance at a wavelength of 550 nm was measured using a spectrophotometer. As control, PBS and 0.1% Triton X-100 (Triton X-100) solution were used.\nBased on the results of measurement of the absorbance, the degree of red blood cell destruction was calculated according to Equation 1 below, and the results of the calculation are shown in FIG. 6. The % intact RBC=100(%)−[(absorbance of peptide-treated red blood cell solution−absorbance of PBS-treated red blood cell solution)/(absorbance of Triton X-100-treated red blood cell solution−absorbance of PBS-treated red blood cell solution)×100(%)] [Equation 1]"}, "[6]": {"test_system": "multidrug-resistant Pseudomonas aeruginosa", "conditions": "4 h", "description": "First, each of Pseudomonas aeruginosa (ATCC 27853) and Staphylococcus aureus (ATCC 29213) was cultured in 3% (w/v) TSB (Tryptic Soy Broth) liquid medium at 37° C. and 200 rpm for 4 hours, and then further cultured under the same conditions for 3 hours to a concentration of 5×10^6 CFU/ml. Strain solutions were prepared by diluting each of the further cultured strains with SP (sodium phosphate; 10 mM sodium phosphate, 1% TSB) buffer to a final concentration of 2×10^5 CFU/ml.\nas §3, with “each” for “the KU-5878”\nIn addition, 30 g/L of TS (tryptic soy) and 15 g/L of agar were dissolved in distilled water and sterilized, and then 25 ml of the solution was poured onto a 100 mm round plate and solidified at room temperature for one day or more, thereby preparing a TS agar plate. 10 μl of each reaction solution of the peptide and the strain was plated on the TS agar plate at a constant size, and incubated in an incubator at 37° C. for 18 hours, and then colony formation on the plate was checked.\nas §2, §3\nIn addition, 10 μl of each reaction solution of the peptide and the strain was plated on the TS agar plate at a constant size, and incubated in an incubator at 37° C. for 18 hours, and then colony formation on the plate was checked.\nMeanwhile, the multidrug-resistant Pseudomonas aeruginosa, multidrug-resistant Acinetobacter and multidrug-resistant Klebsiella in Table 2 below were bacteria isolated from patients at Korea University Anam Hospital. […] Then, these bacteria were used in the experiment."}, "[7]": {"test_system": "methicillin-resistant Staphylococcus aureus (ATCC 33591)", "conditions": "for MBC MRSA: Tables 11-15, no unit printed"}}, "note": "Where two headings read alike, the source gives them in different places. No end group written: not given here.", "data": [{"sequence": "KTMMQSGGTFGTFMAIGMGIR [KU-5878]", "values": [{"measurement": "survival rate of the mice", "setting": "[1]", "value": 60, "unit": "%"}, {"measurement": "MBC value (μg/ml), Klebsiella pneumoniae", "setting": "[2]", "value": 100, "unit": "µg/mL"}, {"measurement": "MBC value (μg/ml), Enterobacter aerogenes", "setting": "[3]", "value": 90, "unit": "µg/mL"}, {"measurement": "MBC value (μg/ml), Enterococcus faecium", "setting": "[4]", "value": 85, "unit": "µg/mL"}, {"measurement": "MBC value (μg/ml), Enterococcus faecalis", "setting": "[5]", "value": 85, "unit": "µg/mL"}, {"measurement": "hemolysis of red blood cells", "setting": "mouse red blood cells", "value": "little hemolysis even at a high concentration"}, {"measurement": "MBC value (μg/ml) against multidrug-resistant Pseudomonas aeruginosa", "setting": "[6]", "value": 110, "unit": "µg/mL"}, {"measurement": "MBC value (μg/ml) against methicillin-resistant Staphylococcus aureus", "setting": "[7]; ATCC 33591, 4 h", "value": 100, "unit": "µg/mL"}, {"measurement": "MBC MRSA", "setting": "[7]", "value": 110, "unit": "µg/mL"}, {"measurement": "MBC MRSA", "setting": "[7]; listed as 5878", "value": 100, "unit": "µg/mL"}]}]}
